Results published in patent US10350203B2, “Multidrug infusion for pain control” (priority 2014, dated 2019).

What was measured:
[1] = test system: pain due to severe spastic right hemiparesis post stroke; details: for pain relief: human, in vivo, iv
[2] = test system: spinal tissue or meninges; details: dog, in vivo, 1 mg/kg; cited from earlier work
gliosis = details: rat, in vivo; cited from earlier work
[3] = intrathecal, combined with opioids, up to more than 30 mg/day; cited from earlier work
[4] = test system: hyperalgesia and allodynia; details: rat, in vivo; cited from earlier work
pain = details: in vivo; cited from earlier work
spinal cord = details: in vivo; cited from earlier work

## CNC1(c2ccccc2Cl)CCCCC1=O (stereo not shown) [ketamine]
[1]
  pain relief: did not provide any relief
[1]; intravenous infusions
  tolerability: well tolerated
[2]
  histological alterations of spinal tissue or meninges: no histological alterations

## O=C1CC[C@@]2(O)[C@H]3Cc4ccc(O)c5c4[C@@]2(CCN3CC2CC2)[C@H]1O5 [naltrexone]
gliosis
  gliosis: attenuates gliosis

## NCC(CC(=O)O)c1ccc(Cl)cc1 (stereo not shown) [Baclofen]
[1]
  pain relief: no relief

## CCCCN1CCCCC1C(=O)Nc1c(C)cccc1C (stereo not shown) [bupivacaine]
[3]
  bladder dysfunction or muscle weakness: did not cause bladder dysfunction or muscle weakness

## C=CCN1CC[C@]23c4c5ccc(O)c4O[C@H]2C(=O)CC[C@@]3(O)[C@H]1C5 [naloxone]
[4]
  effect on antihyperalgesia and antiallodynia effects of morphine: enhanced
pain
  effect on morphine analgesic effect: dramatically enhanced
  side effects: without apparent side effects
Spinal cord
  signs of spinal cord toxicity: have not demonstrated signs of spinal cord toxicity
